Entries after “also recorded” stand apart in the source; their conditions may differ.
Columns and labels:
Assay type in all cases: biochemical, Talaromyces emersonii
[1] = test system: EG V, EG VI and EG VII; experiment: Effects of metal ions, reagents, phenolics and glycosides stated for all three enzymes; conditions: for effect of phenolic substances on enzyme activity: pre-incubation of enzyme with compound in the absence of substrate; for inhibition by sulphydryl reagents: in the presence or absence of substrate
Method: (§1) Substrate specificity on various polysaccharides and synthetic glycosides was evaluated by 15 measuring activity against a wide variety of carbohydrates (BBG, lichenan, CMC, other polysaccharides and synthetic glycosides) using the normal β-glucanase assay procedure. • Effects Of Metal Ions, Chemical Modification Reagents And Potential Inhibitors A range of monovalent, divalent and heavy metal ions, at final assay concentrations of 1.0 mM, were investigated for their potential effects on the activities of EG V, EG VI and EG VII, by incubating the enzymes with the chemicals and then conducting the normal enzyme assay. Finally, the inhibitor effects of glycosides, such as disaccharides, lactones and flavanoid glycosides on the purified enzymes were examined. Specified concentrations of each glycoside were included in normal assay cocktails and residual activity determined by comparison with controls (no glycoside present).
(§2) Activity was expressed as a % relative to a control (no metal ion present in incubation mixture). In general, heavy metal ions are thought to inactivate enzymes by forming covalent salts with cysteine, histidine or carboxyl groups. […] A selection of reagents known to modify amino acid R-groups in proteins were tested for their effects on EG V, EG VI and EG VII, both in the absence and presence of substrate (substrate-protective effects could be observed in this manner) (see Table 6).

[2] = test system: EG V; experiment: Effects of metal ions, chemical modification reagents, detergents and potential inhibitors on EG V; conditions: for EG V activity, Enzyme + reagent (control = 100.0): Preincubation of enzyme with reagent for 30 min (50 C) prior to addition of substrate; for EG V activity, Substrate + reagent (control = 100.0): Preincubation of substrate with reagent for 30 min (50 C) prior to addition of enzyme
Method: as §1, §2

[3] = test system: EG VII; experiment: Effects of metal ions, chemical modification reagents, detergents and potential inhibitors on EG VII; conditions: for EG VII activity, Enzyme + reagent (control = 100.0): Preincubation of enzyme with reagent for 30 min (50 C) prior to addition of substrate; for EG VII activity, Substrate + reagent (control = 100.0): Preincubation of substrate with reagent for 30 min (50 C) prior to addition of enzyme
Method: as §1, §2

[4] = test system: EG VI; experiment: Effects of metal ions, chemical modification reagents, detergents and potential inhibitors on EG VI; conditions: for decrease in activity of EG VI: 1 mM metal ion, relative to control without metal ion; for EV VI activity, Enzyme + reagent (control = 100.0): Preincubation of enzyme with reagent for 30 min (50 C) prior to addition of substrate; for EGVI activity, Substrate + reagent (control = 100.0): Preincubation of substrate with reagent for 30 min (50 C) prior to addition of enzyme
Method: as §1, §2

In the case of Oc1cc(O)c2c(c1)O[C@H](c1ccc(O)c(O)c1)[C@@H](O)C2 [(+)catechin], the “effect of phenolic substances on enzyme activity” value (from here on “effect of phenolic substances”) [1] is reported as “did not have a marked inhibitory effect”.
With Oc1cc(O)c2c(c1)O[C@H](c1ccc(O)c(O)c1)[C@H](O)C2 [(−)epicatechin] the “effect of phenolic substances” value [1] was “did not have a marked inhibitory effect”.
In the case of [Ag+] [Ag^+], the “effect of metal ion on activity of all three enzymes” value (“effect … of all three enzymes” below) ([1]; 1 mM metal ion) is reported as “markedly decreased activity”.
With [Fe+2] [Fe^2+] the “decrease in activity of all three enzymes” value ([1]; 1 mM metal ion) was 35.4-88.0%, the “effect … of all three enzymes” value ([1]; 1 mM metal ion) was “markedly decreased activity” and the “increase in activity of EG V” value ([2]; 1 mM metal ion, relative to control without metal ion) was 20%. The “enhancement of EG VII activity by SO4^2− salt relative to corresponding Cl^− salt” value ([3]; 1 mM) was roughly 4.5 fold, the “effect of metal ion on EG VII” value ([3]; 1 mM metal ion) was “minimum effects” and the “decrease in activity of EG VI” value [4] was 38.6%. For the same compound, the “decrease in activity of EG VI” value ([4]; listed as Fe^3+) was 53.6-59.3%.
[Hg+2] [Hg^2+] was tested, and the “effect … of all three enzymes” value ([1]; 1 mM metal ion) was “Almost total inhibition”.
NC(=O)CI [Iodoacetamide] was tested, and the “inhibition by sulphydryl reagents” value [1] was “little or no inhibition”, the “EG V activity, Enzyme + reagent (control = 100.0)” value (shortened to “EG V activity, Enzyme + reagent”) [2] was 103.6 and the “EG V activity, Substrate + reagent (control = 100.0)” value (“EG V activity, Substrate + reagent” for short) [2] was 87.4. The “EG VII activity, Enzyme + reagent (control = 100.0)” value (shortened to “EG VII activity, Enzyme + reagent”) [3] was 101.6, the “EG VII activity, Substrate + reagent (control = 100.0)” value (shortened to “EG VII activity, Substrate + reagent”) [3] was 83.7 and the “EV VI activity, Enzyme + reagent (control = 100.0)” value (from here on “EV VI activity, Enzyme + reagent”) [4] was 99.9. The “EGVI activity, Substrate + reagent (control = 100.0)” value (“EGVI activity, Substrate + reagent” for short) [4] was 122.6.
With [Mg+2] [Mg^2+] the “effect … of all three enzymes” value ([1]; 1 mM metal ion) was “enhanced the activity”, the “decrease of EG V activity by SO4^2− salt relative to Cl^− salt of same cation” value ([2]; 1 mM) was 54.2% and the “decrease of EG VI activity by SO4^2− salt relative to Cl^− salt of same cation” value ([4]; 1 mM) was 50.1%.
In the case of [Mo] [Mo^6+], the “effect … of all three enzymes” value ([1]; 1 mM metal ion) is reported as “enhanced the activity”.
For CCN1C(=O)C=CC1=O [N-ethylmaleimide], the “inhibition by sulphydryl reagents” value [1] was “little or no inhibition”.
In the case of [Na+].[O-][I+3]([O-])([O-])[O-] [Sodium periodate], the “EG V activity, Enzyme + reagent” value [2] is reported as 181.0, the “EG V activity, Substrate + reagent” value [2] is reported as 283.3 and the “EG VII activity, Enzyme + reagent” value [3] is reported as 300.0. For the same compound, the “EG VII activity, Substrate + reagent” value [3] was 469.7, the “EV VI activity, Enzyme + reagent” value [4] was 357.1 and the “EGVI activity, Substrate + reagent” value [4] was 1001.2.
In the case of O=C(O)CS [Thioglycolic acid], the “EG V activity, Enzyme + reagent” value [2] is reported as 211.1, the “EG V activity, Substrate + reagent” value [2] is reported as 148.1 and the “EG VII activity, Enzyme + reagent” value [3] is reported as 188.1. The “EG VII activity, Substrate + reagent” value [3] was 150.0, the “EV VI activity, Enzyme + reagent” value [4] was 187.1 and the “EGVI activity, Substrate + reagent” value [4] was 269.0.
CC[n+]1ccc(-c2cccc(S(=O)(=O)[O-])c2)o1 [Woodward's Reagent K] was tested, and the “EG V activity, Enzyme + reagent” value [2] was 162.7, the “EG V activity, Substrate + reagent” value [2] was 121.1 and the “EG VII activity, Enzyme + reagent” value [3] was 305.9. The “EG VII activity, Substrate + reagent” value [3] was 143.0, the “EV VI activity, Enzyme + reagent” value [4] was 280.0 and the “EGVI activity, Substrate + reagent” value [4] was 266.7.
With [Zn+2] [Zn^230] the “effect … of all three enzymes” value ([1]; 1 mM metal ion) was “enhanced the activity”.
OC[C@H]1O[C@@H](Oc2ccc(O)cc2)[C@H](O)[C@@H](O)[C@@H]1O [arbutin] was tested, and the “effect of glycosides/disaccharides on activity of EG V-VII” value (shortened to “effect of glycosides/disaccharides”) [1] was “no apparent effect”.
For O=C(O)/C=C/c1ccc(O)c(O)c1 [caffeic acid], the “effect of phenolic substances” value [1] was “did not have a marked inhibitory effect” and the “effect of phenolic substances” value ([1]; listed as cafeic acid) was “markedly activated”.
In the case of O=C[C@H](O)[C@@H](O)[C@H](O[C@@H]1O[C@H](CO)[C@@H](O)[C@H](O)[C@H]1O)[C@H](O)CO [cellobiose], the “concentrations that markedly inhibited all three enzymes” value [1] is reported as 50 to 75 mM.
In the case of O=c1ccc2cc(O[C@@H]3O[C@H](CO)[C@@H](O)[C@H](O)[C@H]3O)c(O)cc2o1 [esculin], the “effect of glycosides/disaccharides” value [1] is reported as “no apparent effect”.
COc1cc(/C=C/C(=O)O)ccc1O [ferulic acid] was tested, and the “effect of phenolic substances” value [1] was “did not have a marked inhibitory effect”.
Oc1cccc(-c2ccccc2)c1 [m-phenylphenol] was tested, and the “effect of phenolic substances” value [1] was “did not have a marked inhibitory effect”.
With OC[C@H]1O[C@H](O[C@H]2[C@H](O)[C@@H](O)[C@H](O)O[C@@H]2CO)[C@H](O)[C@@H](O)[C@@H]1O [maltose] the “effect of glycosides/disaccharides” value [1] was “no apparent effect”.
OC[C@H]1O[C@H](OCC2O[C@@H](O)[C@H](O)[C@@H](O)[C@@H]2O)[C@H](O)[C@@H](O)[C@H]1O (some centres unmarked) [melibiose] was tested, and the “effect of glycosides/disaccharides” value [1] was “no apparent effect”.
With O=Cc1ccccc1C=O [o-Phthaldialdehyde] the “EG V activity, Enzyme + reagent” value [2] was 106.1, the “EG V activity, Substrate + reagent” value [2] was 94.6 and the “EG VII activity, Enzyme + reagent” value [3] was 155.0. The “EG VII activity, Substrate + reagent” value [3] was 98.8, the “EV VI activity, Enzyme + reagent” value [4] was 100.0 and the “EGVI activity, Substrate + reagent” value [4] was 139.0.
O=C(O)/C=C/c1ccccc1O [o-coumaric acid] was tested, and the “effect of phenolic substances” value [1] was “did not have a marked inhibitory effect”.
For O=C(O)c1cc[c]([Hg][Cl])cc1 [p-Chloromercuribenzoate], the “EG V activity, Enzyme + reagent” value [2] was 125.4, the “EG V activity, Substrate + reagent” value [2] was 89.7 and the “EG VII activity, Enzyme + reagent” value [3] was 105.4. For the same compound, the “EG VII activity, Substrate + reagent” value [3] was 91.6, the “EV VI activity, Enzyme + reagent” value [4] was 115.4 and the “EGVI activity, Substrate + reagent” value [4] was 107.1.
For O=C(O)c1cc[c]([Hg+])cc1.[OH-] [p-Hydroxymercuribenzoate], the “inhibition by sulphydryl reagents” value [1] was “little or no inhibition”, the “EG V activity, Enzyme + reagent” value [2] was 92.8 and the “EG V activity, Substrate + reagent” value [2] was 261.7. The “EG VII activity, Enzyme + reagent” value [3] was 99.5, the “EG VII activity, Substrate + reagent” value [3] was 94.8 and the “EV VI activity, Enzyme + reagent” value [4] was 98.3. For the same compound, the “EGVI activity, Substrate + reagent” value [4] was 125.0.
With O=C(O)c1ccc(O)c(O)c1 [protocatechuic acid] the “effect of phenolic substances” value [1] was “markedly activated”.
With OCc1ccccc1O[C@@H]1O[C@H](CO)[C@@H](O)[C@H](O)[C@H]1O [salicin] the “effect of glycosides/disaccharides” value [1] was “no apparent effect”.
With OC[C@@H](O)[C@@H](O)[C@H](O)[C@@H](O)CO [sorbitol] the “effect of glycosides/disaccharides” value [1] was “no apparent effect”.
In the case of OC[C@H]1O[C@@](CO)(O[C@H]2O[C@H](CO)[C@@H](O)[C@H](O)[C@H]2O)[C@@H](O)[C@@H]1O [sucrose], the “effect of glycosides/disaccharides” value [1] is reported as “no apparent effect”.
COc1cc(C(=O)O)cc(OC)c1O [syringic acid] was tested, and the “effect of phenolic substances” value [1] was “did not have a marked inhibitory effect; also recorded: markedly activated”.
In the case of O=C(OC[C@H]1O[C@@H](OC(=O)c2cc(O)c(O)c(OC(=O)c3cc(O)c(O)c(O)c3)c2)[C@H](OC(=O)c2cc(O)c(O)c(OC(=O)c3cc(O)c(O)c(O)c3)c2)[C@@H](OC(=O)c2cc(O)c(O)c(OC(=O)c3cc(O)c(O)c(O)c3)c2)[C@@H]1OC(=O)c1cc(O)c(O)c(OC(=O)c2cc(O)c(O)c(O)c2)c1)c1cc(O)c(O)c(OC(=O)c2cc(O)c(O)c(O)c2)c1 [tannic acid], the “effect of phenolic substances” value [1] is reported as “potent inhibitor”.

Reference: patent US20100028485A1, “TALAROMYCES EMERSONII ENZYME SYSTEMS” (priority 2006, published 2010)
